Laboratory results as given in the supplement of paper PMC4862054.

Columns and labels:
Conditions in all cases: incubation time: 72 h
HDQ-P1 [1] = assay: normalised response (% of control), CellTox Green; higher = less cell death (100 = DMSO, 0 = benzethonium chloride kill control)
Procedure, shortened: (§1)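 Values are normalised signals, each belonging to one concentration of the series. Breast cancer cells (20 µl suspension) were seeded into 384-well plates with compound at 5 concentrations in 10-fold steps over a compound-specific 10,000-fold range and incubated 72 h. Readouts were CellTox Green fluorescence (485/520 nm), then CellTiter-Glo luminescence after 10 min at room temperature, with each plate set to 0.1 % DMSO as 100 and a positive kill control as 0.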

CAL-148 [2] = assay: as above
Procedure, shortened: as §1

MFM-223 [3] = assay: as above
Procedure, shortened: as §1

HCC1599 [4] = assay: as above
Procedure, shortened: as §1

HCC1937 [5] = assay: as above
Procedure, shortened: as §1

BT-549 [6] = assay: as above
Procedure, shortened: as §1

DU-4475 = assay: as above
Procedure, shortened: as §1

BT-474 [7] = assay: as above
Procedure, shortened: as §1

HCC1143 [8] = assay: as above
Procedure, shortened: as §1

MDA-MB-453 [9] = assay: normalised viability (% of control), CellTiter-Blue; higher = more viable cells (about 100 = DMSO control)
Procedure, shortened: (§2)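 Each value is normalised viability at a single listed concentration of the series. Breast cancer cell lines in 384-well plates were incubated 72 h with compound and read by CellTiter-Blue fluorescence at 560/590 nm, with vehicle set to 100 and a positive kill control to 0 on every plate.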

CAL-51 [10] = assay: as above
Procedure, shortened: as §2

MDA-MB-453 [11] = assay: normalised response (% of control), CellTiter-Glo; higher = more viable cells (100 = DMSO, 0 = benzethonium chloride kill control)
Procedure, shortened: as §1

CAL-51 [12] = assay: as above
Procedure, shortened: as §1

CAL-85-1 = assay: as above
Procedure, shortened: as §1

HDQ-P1 [13] = assay: as above
Procedure, shortened: as §1

CAL-148 [14] = assay: as above
Procedure, shortened: as §1

Hs578T = assay: as above
Procedure, shortened: as §1

MCF-10A = assay: as above
Procedure, shortened: as §1

MDA-MB-468 = assay: as above
Procedure, shortened: as §1

CAL-120 = assay: as above
Procedure, shortened: as §1

MDA-MB-231 = assay: as above
Procedure, shortened: as §1

MFM-223 [15] = assay: as above
Procedure, shortened: as §1

MDA-MB-436 = assay: as above
Procedure, shortened: as §1

SK-BR-3 = assay: as above
Procedure, shortened: as §1

HCC1599 [16] = assay: as above
Procedure, shortened: as §1

HCC1937 [17] = assay: as above
Procedure, shortened: as §1

BT-549 [18] = assay: as above
Procedure, shortened: as §1

BT-474 [19] = assay: as above
Procedure, shortened: as §1

HCC1143 [20] = assay: as above
Procedure, shortened: as §1

In the case of CN1CCN(c2nc(C3=C(c4c[nH]c5ccccc45)C(=O)NC3=O)c3ccccc3n2)CC1 [Sotrastaurin] (1000 nM), the normalised response (HDQ-P1 [1]) is reported as 66.9%, the normalised response (CAL-148 [2]) is reported as 58.2% and the normalised response (MFM-223 [3]) is reported as 102%. The normalised response (HCC1599 [4]) was 92.9%, the normalised response (HCC1937 [5]) was 108% and the normalised response (BT-549 [6]) was 111%. For the same compound, the normalised response (DU-4475) was 99.8%, the normalised response (BT-474 [7]) was 98.8% and the normalised response (HCC1143 [8]) was 58.9%. The normalised viability (MDA-MB-453 [9]) was 89.7%, the normalised viability (CAL-51 [10]) was 74.3% and the normalised response (MDA-MB-453 [11]) was 102%. It also gave a normalised response (CAL-51 [12]) of 122%, a normalised response (CAL-85-1) of 121% and a normalised response (HDQ-P1 [13]) of 93.5%. The normalised response (CAL-148 [14]) was 88%, the normalised response (Hs578T) was 101% and the normalised response (MCF-10A) was 95.3%. The normalised response (MDA-MB-468) was 91.6%, the normalised response (CAL-120) was 93.7% and the normalised response (MDA-MB-231) was 108%. For the same compound, the normalised response (MFM-223 [15]) was 91.6%, the normalised response (MDA-MB-436) was 102% and the normalised response (SK-BR-3) was 90.9%. It also gave a normalised response (HCC1599 [16]) of 115%, a normalised response (HCC1937 [17]) of 96% and a normalised response (BT-549 [18]) of 101%. The normalised response (BT-474 [19]) was 105% and the normalised response (HCC1143 [20]) was 92.5%.
